Source: ChEMBL document CHEMBL1133927, “Antimalarial t-butylperoxyamines” (Bioorg Med Chem Lett, 2001)
Calls of active or inactive are those of the source. No cut-off for these calls is given here.

Tests used:
Plasmodium falciparum [1] = experiment: (§1) In vitro total parasite growth inhibition for chloroquine-sensitive Plasmodium falciparum FJB D9; format: functional
Plasmodium falciparum [2] = experiment: (§2) In vitro schizont maturation inhibition for chloroquine-sensitive Plasmodium falciparum FSH 14; format: functional, organism-based
Plasmodium falciparum [3] = experiment: (§3) In vitro total parasite growth inhibition for chloroquine-sensitive Plasmodium falciparum FSH 14; format: functional
Plasmodium falciparum [4] = experiment: as §2; format: functional
Plasmodium falciparum [5] = experiment: (§4) In vitro schizont maturation inhibition for chloroquine-sensitive Plasmodium falciparum FJB D9; format: functional
Mus musculus [6] = experiment: Mean survival time of mice (Mus musculus) infected with Plasmodium berghei after administration of compound at the dose of 40 mg/kg; format: functional
Mus musculus [7] = experiment: Mean survival time of mice (Mus musculus) infected with Plasmodium berghei after administration of compound at the dose of 160 mg/kg; format: functional
Mus musculus [8] = experiment: Mean survival time of mice (Mus musculus) infected with Plasmodium berghei after administration of compound at the dose of 80 mg/kg; format: functional
Plasmodium falciparum [9] = experiment: as §4; format: functional, organism-based
Plasmodium falciparum [10] = experiment: as §1; format: functional, organism-based
Mus musculus [11] = experiment: In vivo antimalarial activity against Plasmodium berghei in mice (Mus musculus); Inactive; format: functional, organism-based
Plasmodium falciparum [12] = experiment: as §3; format: functional, organism-based
Mus musculus [13] = experiment: Mean survival time of mice (Mus musculus) infected with Plasmodium berghei after administration of compound at the dose of 20 mg/kg; format: functional
Mus musculus [14] = experiment: In vivo antimalarial activity against Plasmodium berghei in mice (Mus musculus); In active; format: functional, organism-based
Mus musculus [15] = experiment: In vivo antimalarial activity against Plasmodium berghei in mice (Mus musculus); Active from 40 mg/kg; format: functional, organism-based; design: dose 40 mg/kg
Mus musculus [16] = experiment: In vivo antimalarial activity against Plasmodium berghei in mice (Mus musculus); Active at 160 mg/kg; format: functional, organism-based; design: dose 160 mg/kg
Mus musculus [17] = experiment: In vivo antimalarial activity against Plasmodium berghei in mice (Mus musculus); Active at 80 and 160 mg/kg; format: functional, organism-based; design: dose 160 mg/kg

Structure (SMILES) | IC90 (Plasmodium falciparum [1]) | IC50 (Plasmodium falciparum [2]) | IC90 (Plasmodium falciparum [3]) | IC90 (Plasmodium falciparum [4]) | IC90 (Plasmodium falciparum [5]) | Mean survival time (Mus musculus [6]) | Mean survival time (Mus musculus [7]) | Mean survival time (Mus musculus [8]) | IC50 (Plasmodium falciparum [9]) | IC50 (Plasmodium falciparum [10]) | Activity (Mus musculus [11]) | IC50 (Plasmodium falciparum [12]) | Mean survival time (Mus musculus [13]) | Activity (Mus musculus [14]) | Activity (Mus musculus [15]) | Activity (Mus musculus [16]) | Activity (Mus musculus [17])
CCN(CC)COOC(C)(C)C | >25 uM well-1 | > 25 uM well-1 | >25 uM well-1 | >25 uM well-1 | >25 uM well-1 | 8.4 days | 12.2 days | 9.4 days | > 25 uM well-1 | > 25 uM well-1 | inactive | > 25 uM well-1 | 7.2 days | – | – | – | –
COC1=CC=C2[C@H]3Cc4ccc(OC)c5c4[C@@]2(CCN3COOC(C)(C)C)[C@H]1O5 | 6.4 uM well-1 | 0.5 uM well-1 | 5 uM well-1 | 0.92 uM well-1 | 0.47 uM well-1 | 40 days | 7.2 days | 6.8 days | 0.135 uM well-1 | 1.8 uM well-1 | – | 0.45 uM well-1 | 5.2 days | inactive | – | – | –
CC(C)(C)OOCN(Cc1ccccc1)Cc1ccco1 | 5.5 uM well-1 | 1.35 uM well-1 | 5.4 uM well-1 | 4.5 uM well-1 | 2.8 uM well-1 | 7.2 days | 12 days | 10.8 days | 1.45 uM well-1 | 2.1 uM well-1 | inactive | 2.25 uM well-1 | 6.4 days | – | – | – | –
C[C@@H]1CC[C@H]2[C@@H](C)C(=O)O[C@@H]3O[C@@]4(C)CC[C@@H]1[C@]32OO4 [ARTEMISININ] | 0.03 uM well-1 | 0.01 uM well-1 | 0.029 uM well-1 | 0.028 uM well-1 | 0.028 uM well-1 | – | – | – | 0.01 uM well-1 | 0.015 uM well-1 | – | 0.01 uM well-1 | 10.8 days | – | Active | – | –
CC(C)(C)OOCN1CCCC1 | >25 uM well-1 | > 25 uM well-1 | >25 uM well-1 | >25 uM well-1 | >25 uM well-1 | 7 days | 11.8 days | 9.8 days | > 25 uM well-1 | > 25 uM well-1 | – | > 25 uM well-1 | 5.4 days | – | – | Active | –
CC(C)(C)OOCN(C1CCCCC1)C1CCCCC1 | 25 uM well-1 | 2.1 uM well-1 | >25 uM well-1 | >25 uM well-1 | 21 uM well-1 | 8.6 days | 13.4 days | 9.8 days | 1.5 uM well-1 | 5 uM well-1 | – | 5 uM well-1 | 7.6 days | – | – | Active | –
CC(C)(C)OOCN1CCOCC1 | 3 uM well-1 | 0.064 uM well-1 | 2.15 uM well-1 | 2.9 uM well-1 | 2.6 uM well-1 | 7.6 days | 11.4 days | 8.8 days | 0.058 uM well-1 | 0.15 uM well-1 | inactive | 0.16 uM well-1 | 6.8 days | – | – | – | –
CC(C)=CCCC(C)CCN(CCO)COOC(C)(C)C (stereo not drawn) | >25 uM well-1 | 1.4 uM well-1 | >25 uM well-1 | >25 uM well-1 | >25 uM well-1 | 7.3 days | 15 days | 11.2 days | 3.2 uM well-1 | 7.8 uM well-1 | – | 3.8 uM well-1 | 6.2 days | – | – | Active | –
CC(C)(C)OOCN1CCCCC1 | >25 uM well-1 | 2.9 uM well-1 | >25 uM well-1 | 24 uM well-1 | 22.5 uM well-1 | 6.6 days | 10.2 days | 8.2 days | 3.6 uM well-1 | 5.5 uM well-1 | inactive | 5 uM well-1 | 5.2 days | – | – | – | –
CC(C)(C)OOCN(CCO)CCO | >25 uM well-1 | 10 uM well-1 | >25 uM well-1 | >25 uM well-1 | >25 uM well-1 | 11.6 days | 14 days | 12.8 days | 22 uM well-1 | > 25 uM well-1 | – | > 25 uM well-1 | 10.2 days | – | – | – | Active
CC(C)(C)OOCN(Cc1ccccc1)Cc1cccs1 | 4.8 uM well-1 | 0.5 uM well-1 | 12 uM well-1 | 11.5 uM well-1 | 6 uM well-1 | 6.6 days | 14 days | 10.2 days | 0.9 uM well-1 | 2.7 uM well-1 | – | 2.2 uM well-1 | 5.8 days | – | – | Active | –
CC(C)=CCCC(C)CCN(COOC(C)(C)C)Cc1ccccc1 (stereo not drawn) | 10 uM well-1 | 1.6 uM well-1 | 12 uM well-1 | 10 uM well-1 | 9 uM well-1 | 6.8 days | 12.2 days | 10.8 days | 1.6 uM well-1 | 4.4 uM well-1 | – | 2.5 uM well-1 | 5.2 days | – | – | Active | –
